Results taken from ChEMBL document CHEMBL1147993, “Inhibitory effect of obovatal on the migration and invasion of HT1080 cells via the inhibition of MMP-2” (Bioorg Med Chem, 2007).
Calls of active or inactive are those of the source. No cut-off for these calls is given here.

What was measured:
[1] = system: HT-1080; assay: Reduction of MMP2 mRNA expression in HT1080 cells at 20 uM by RT-PCR; type: functional, Homo sapiens; parameters: scale not given: the % may be the effect or the level left
[2] = system: HT-1080; assay: Reduction of MMP2 protein expression in HT1080 cells at 20 uM ny Western blot; type: functional, Homo sapiens; parameters: scale not given: the % may be the effect or the level left
[3] = target: T1, 72 kDa type IV collagenase (Homo sapiens, UniProt P08253); assay: Inhibition of MMP2 expressed in insect cells
Target sequence in this assay (P08253 whole entry): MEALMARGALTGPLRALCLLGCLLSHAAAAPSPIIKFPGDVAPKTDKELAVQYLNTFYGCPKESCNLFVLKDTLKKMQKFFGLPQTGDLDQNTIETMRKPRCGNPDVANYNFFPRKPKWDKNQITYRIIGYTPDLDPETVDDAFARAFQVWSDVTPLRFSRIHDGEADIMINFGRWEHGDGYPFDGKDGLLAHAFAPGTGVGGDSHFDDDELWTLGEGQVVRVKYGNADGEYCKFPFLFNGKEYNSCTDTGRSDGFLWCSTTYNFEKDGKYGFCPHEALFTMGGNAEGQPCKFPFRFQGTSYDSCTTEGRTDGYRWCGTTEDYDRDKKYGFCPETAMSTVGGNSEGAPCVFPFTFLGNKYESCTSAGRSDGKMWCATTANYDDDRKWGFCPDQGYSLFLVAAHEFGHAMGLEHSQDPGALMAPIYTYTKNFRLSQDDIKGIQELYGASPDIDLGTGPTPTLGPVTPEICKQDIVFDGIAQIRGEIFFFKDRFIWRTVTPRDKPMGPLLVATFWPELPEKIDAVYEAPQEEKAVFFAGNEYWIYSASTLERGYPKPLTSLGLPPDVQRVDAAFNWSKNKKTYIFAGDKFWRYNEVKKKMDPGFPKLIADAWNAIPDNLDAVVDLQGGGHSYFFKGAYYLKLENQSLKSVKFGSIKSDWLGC

[4] = system: HFF; assay: Effect on growth of HFF cells after 48 hrs by WST1 reduction assay; type: cell-based; conditions: human
[5] = target: T1, 72 kDa type IV collagenase; assay: Inhibition of MMP2 in HT1080 cells at 15 uM by gelatin zymography assay; type: cell-based; conditions: HT-1080
Target sequence in this assay (P08253 110-660 limits assumed): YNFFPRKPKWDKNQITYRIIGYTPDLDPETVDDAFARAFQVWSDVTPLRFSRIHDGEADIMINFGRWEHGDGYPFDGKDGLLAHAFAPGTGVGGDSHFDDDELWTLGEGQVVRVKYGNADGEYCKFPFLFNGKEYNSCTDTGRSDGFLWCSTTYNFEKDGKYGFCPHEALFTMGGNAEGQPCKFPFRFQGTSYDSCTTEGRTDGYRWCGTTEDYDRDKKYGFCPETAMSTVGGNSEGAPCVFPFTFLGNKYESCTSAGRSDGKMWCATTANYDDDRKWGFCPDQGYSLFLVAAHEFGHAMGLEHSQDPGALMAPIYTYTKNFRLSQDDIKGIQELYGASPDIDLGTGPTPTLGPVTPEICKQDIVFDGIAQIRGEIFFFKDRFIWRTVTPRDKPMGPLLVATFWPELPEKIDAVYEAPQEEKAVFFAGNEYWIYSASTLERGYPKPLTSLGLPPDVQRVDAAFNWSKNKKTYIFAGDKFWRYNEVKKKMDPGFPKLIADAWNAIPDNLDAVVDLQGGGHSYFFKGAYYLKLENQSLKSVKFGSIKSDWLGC

[6] = system: HT-1080; assay: Inhibition of invasion of HT1080 cells at 20 uM after 24 hrs by Matrigel invasion assay relative to control; type: functional; conditions: Homo sapiens, HT-1080, 24 h
[7] = system: HCT-116; assay: Growth inhibition of HCT116 cells up to 50 uM after 48 hrs by WST1 reduction assay; type: functional, cell-based; conditions: Homo sapiens
[8] = system: HT-1080; assay: Inhibition of migration of HT1080 cells at 20 uM by wound healing assay; type: functional, cell-based; conditions: Homo sapiens

C=CCc1ccc(Oc2cc(/C=C/C=O)cc(O)c2O)cc1 [OBOVATAL]
Activity [1]: 70%
Activity [2]: 70%
IC50 [3]: 800 nM
Activity [4]: Non-toxic
Activity [5]: Active
inhibition at 20 µM [6]: 70%
Activity [7]: Active
Activity [8]: Active
